Reference: paper PMC10648877, “Novel Substituted Azoloazines with Anticoagulant Activity” (International Journal of Molecular Sciences, 2023)
Several values for one entry are separate records, joined by “and”; a condition that tells them apart may be missing. Equal values may be shown once.

Legend:
[1] = tested on: platelet-poor plasma (PPP); experiment: Activated partial thromboplastin time (APTT), rabbit blood coagulogram in vitro; format: biochemical; conditions: 100 μM;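 also: clotting time read chronometrically on a hemocoagulometer with commercial reagent kits, one of several coagulogram parameters alongside thrombin and prothrombin time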
Procedure: Test compounds and the reference drug were evaluated at a concentration of 100 μM. Effect on rabbit blood coagulograms in vitro was determined chronometrically with a SOLAR hemocoagulometer (Minsk, Belarus) using commercial kits (Technology-Standard, Barnaul, Russia) as per the manufacturer’s instructions. The following parameters were determined: activated partial thromboplastin time, thrombin time, and prothrombin time.

LPS-treated PPP [2] = experiment: APTT, rabbit blood treated with LPS in vitro (hypercytokinemia); format: biochemical; conditions: 100 μM
Procedure: (§1) Hypercytokinemia conditions were modeled by incubation of whole blood with S. typhimurium LPS (Sigma Aldrich, St. Louis, MO, USA) at a final concentration of 20 ng/mL and subsequent preparation of PPP.

LPS-treated PPP [3] = experiment: Thrombin time, rabbit blood treated with LPS in vitro (hypercytokinemia); format: biochemical; conditions: for Δ % of Thrombin Time Prolongation Relative To Control + LPS: with LPS
Procedure: as §1
(§2) The calculation of EC50 (effective concentration that prolongs the time of clot formation by 50%) was performed using linear regression analysis.

LPS-treated PPP [4] = experiment: Prothrombin time, rabbit blood treated with LPS in vitro (hypercytokinemia); format: biochemical; conditions: 100 μM
Procedure: as §1

[5] = tested on: platelet-poor plasma (PPP); experiment: Ecarin clotting time in vitro; format: biochemical
Procedure: The ecarin clotting time was designed for the determination of antithrombin anticoagulant activity in platelet-poor plasma. Venous blood was collected into a 15 mL Falcon type plastic tube with 3.8% sodium citrate solution (0.5 mL of sodium citrate per 5 mL of blood), centrifuged on a CM-6M centrifuge (Elmi, Riga, Latvia) at room temperature from 18 to 25 °C for 15 min at 3000 rpm (1200× g). The obtained plasma was withdrawn using an automatic pipette and transferred to a separate clean, dry plastic tube. After that, the obtained plasma was recentrifuged under the same conditions and the upper third of the plasma was taken for analysis.
The ecarin stock solution (STA-ECT, Stago, Düsseldorf, Germany) was prepared according to the manufacturer’s instructions and diluted to 4 units/mL with HEPES-buffered saline (0.2 M) containing 0.025 M calcium chloride.
The tested samples were investigated in the concentration range from 100 to 1 μM for IC50 determination.
Prepared reagents and platelet-poor plasma were heated to 37 °C. The assay was performed on a Solar CGL2120 coagulometer (Belarus), adding 50 µL of the reagent ecarin to 100 µL of PPP and recording the clotting time.
as §2

coagulograms of rats [6] = experiment: APTT after single intragastric administration, rats without hypercytokinemia; format: in vivo, rat; conditions: dabigatran etexilate 12 mg/kg
Procedure: (§3) Distilled water was used as a solvent. In all experiments, control animals were injected with an equivalent volume of a vehicle. The reference drug dabigatran etexilate was administered to rats 2 h before the study at a 12 mg/kg dose (equivalent to the human dose, taking into account the interspecies conversion factor). Compound 5d was administered to rats 2 h before the study in a 5.5 mg/kg dose, equimolar to the dose of dabigatran etexilate.
(§4) To stabilize the blood, a 3.8% aqueous solution of sodium citrate (pH 6.0) was used in a ratio of 9:1. Coagulogram parameters of platelet-poor plasma were measured with a SOLAR coagulometer according to the methods described above.

coagulograms of rats [7] = experiment: Thrombin time after single intragastric administration, rats without hypercytokinemia; format: in vivo, rat; conditions: dabigatran etexilate 12 mg/kg
Procedure: as §3, §4

coagulograms of rats [8] = experiment: Prothrombin time after single intragastric administration, rats without hypercytokinemia; format: in vivo, rat
Procedure: (§5) Distilled water was used as a solvent. In all experiments, control animals were injected with an equivalent volume of a vehicle. The reference drug dabigatran etexilate was administered to rats 2 h before the study at a 12 mg/kg dose (equivalent to the human dose, taking into account the interspecies conversion factor).
(§6) Coagulogram parameters of platelet-poor plasma were measured with a SOLAR coagulometer according to the methods described above.

coagulograms of rats [9] = experiment: APTT after single intragastric administration, rats with hypercytokinemia (LPS); format: in vivo, rat; conditions: dabigatran etexilate 12 mg/kg
Procedure: as §3, §4
(§7) Hypercytokinemia conditions were modeled by an intravenous injection of S. typhimurium LPS (Sigma Aldrich, St. Louis, MO, USA) at a final dose of 2 mg/kg into the tail vein of the rats 2 h before the administration of the substances. The evaluation of anticoagulant activity was conducted according to the methods described above.

coagulograms of rats [10] = experiment: Thrombin time after single intragastric administration, rats with hypercytokinemia (LPS); format: in vivo, rat
Procedure: as §3, §4, §7

coagulograms of rats [11] = experiment: Prothrombin time after single intragastric administration, rats with hypercytokinemia (LPS); format: in vivo, rat
Procedure: as §5, §6, §7

[12] = tested on: platelet-poor plasma (PPP); experiment: Thrombin time (TT), rabbit blood coagulogram in vitro; format: biochemical
[13] = tested on: platelet-poor plasma (PPP); experiment: Prothrombin time (PT), rabbit blood coagulogram in vitro; conditions: 100 μM;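 also: clotting time read chronometrically on a hemocoagulometer using commercial reagent kits, with dabigatran etexilate at the same concentration as reference anticoagulant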
Procedure: The study was performed on platelet-poor plasma (PPP) stabilized with a 3.8% sodium citrate solution in a ratio of 9:1 according to the method described in [34]. Dabigatran etexilate (Boehringer Ingelheim Pharma GmbH and Co., Ingelheim am Rhein, Germany) was used as the reference drug. Test compounds and the reference drug were evaluated at a concentration of 100 μM. Effect on rabbit blood coagulograms in vitro was determined chronometrically with a SOLAR hemocoagulometer (Minsk, Belarus) using commercial kits (Technology-Standard, Barnaul, Russia) as per the manufacturer’s instructions. The following parameters were determined: activated partial thromboplastin time, thrombin time, and prothrombin time.

[14] = intact rats, 2 h after intragastric administration, 5d 5.5 mg/kg
[15] = rats without hypercytokinemia, single intragastric dose, 2 h, 5d 5.5 mg/kg (equimolar)
[16] = rats with hypercytokinemia (LPS 2 mg/kg i.v.), single intragastric dose, 2 h, dabigatran etexilate 12 mg/kg, 5d 5.5 mg/kg

## CCCCCCOC(=O)N=C(N)c1ccc(NCc2nc3cc(C(=O)N(CCC(=O)OCC)c4ccccn4)ccc3n2C)cc1 [Dabigatran etexilate, reference compound]
[1]
  increase of APTT relative to the control: 1.6 times
[1]; M ± m, n = 6
  APTT: 75.26 ± 2.61 s
LPS-treated PPP [2]; LPS-treated rabbit blood in vitro
  prolongation of APTT relative to LPS-treated blood: 2.3 times
LPS-treated PPP [2]; rabbit blood treated with LPS in vitro
  APTT: 135.13 ± 15.17 s
LPS-treated PPP [3]; 1 μM
  Δ % of Thrombin Time Prolongation Relative To Control + LPS: 51.7% and 51.7 ± 0.5%
LPS-treated PPP [3]; 5 μM
  Δ % of Thrombin Time Prolongation Relative To Control + LPS: 208.6%
LPS-treated PPP [3]; 10 μM
  Δ % of Thrombin Time Prolongation Relative To Control + LPS: 292.0%
LPS-treated PPP [3]; LPS-treated rabbit blood in vitro, 100 μM
  prolongation of thrombin time relative to LPS-treated blood control: 14.0 times
LPS-treated PPP [3]; rabbit blood treated with LPS in vitro, 100 μM
  TT: 125.45 ± 1.54 s
LPS-treated PPP [4]
  PT: 15.73 ± 0.20 s
[5]; 1 μM
  ecarin clotting time: 41.6 s
[5]; 10 μM
  ecarin clotting time: 54.1 s
[5]; 100 μM
  lengthening of ecarin clotting time compared to control: 2.3 fold
[5]; concentration range 100 to 1 μM
  EC50: 10.5 µM
Coagulograms of rats [6]; [14]
  prolongation of APTT compared to the control: 3.6 times
Coagulograms of rats [6]; [15]
  APTT: 137.5 ± 2.2 s
Coagulograms of rats [7]; [14]
  increase of thrombin time relative to intact control: 10.5 times
Coagulograms of rats [7]; [15]
  TT: 603.9 ± 14.2 s
Coagulograms of rats [8]
  effect on prothrombin time: did not change
Coagulograms of rats [8]; single intragastric dose, 2 h, dabigatran etexilate 12 mg/kg, 5d 5.5 mg/kg (equimolar)
  PT: 31.2 ± 1.3 s
Coagulograms of rats [9]; LPS-injected rats, 5d 5.5 mg/kg intragastric
  prolongation of APTT in relation to the LPS control group: 2.2 times
Coagulograms of rats [9]; rats with hypercytokinemia (LPS 2 mg/kg i.v.), single intragastric dose, 2 h, 5d 5.5 mg/kg
  APTT: 41.0 ± 2.0 s
Coagulograms of rats [10]; LPS-injected rats, dabigatran etexilate 12 mg/kg, 5d 5.5 mg/kg intragastric
  increase of thrombin time in relation to the LPS control group: 12.8 times
Coagulograms of rats [10]; [16]
  TT: 566.1 ± 11.5 s
Coagulograms of rats [10]; rats, single intragastric administration
  antithrombin effect under systemic inflammation reaction versus its absence: did not change
Coagulograms of rats [11]; [16]
  PT: 28.1 ± 1.0 s
Coagulograms of rats [11]; rats with systemic inflammatory reaction (LPS)
  effect on prothrombin time: neither the test compound nor dabigatran etexilate had an effect
[12]; 0.1 μM, without LPS
  Δ% of Thrombin Time Prolongation Relative to Control: 1.4 ± 0.4 %
[12]; 1 μM, without LPS
  Δ% of Thrombin Time Prolongation Relative to Control: 42.3 ± 5.6 %
[12]; 1 μM, without LPS, listed as dabigatran etexilate
  Δ% of Thrombin Time Prolongation Relative to Control: 42.3%
[12]; 5 μM, without LPS
  Δ% of Thrombin Time Prolongation Relative to Control: 176.1 ± 15.3 %
[12]; 5 μM, without LPS, listed as dabigatran etexilate
  Δ% of Thrombin Time Prolongation Relative to Control: 176.1%
[12]; 10 μM, intact PPP
  thrombin time: 46.8 s
[12]; 10 μM, without LPS
  Δ% of Thrombin Time Prolongation Relative to Control: 302.0 ± 34.4 %
[12]; 10 μM, without LPS, listed as dabigatran etexilate
  Δ% of Thrombin Time Prolongation Relative to Control: 302.0%
[12]; rabbit blood in vitro, 100 μM
  increase of thrombin time relative to the control: 6.0 times
[12]; rabbit blood in vitro, 100 μM, M ± m, n = 6
  TT: 70.23 ± 3.15 s
[12]; without LPS, concentration that prolongs clot formation time by 50%, read-out: EC50, μM (thrombin time prolongation)
  EC50: 1.4 µM
[13]
  effect on prothrombin time: without changing the prothrombin time
[13]; M ± m, n = 6
  PT: 14.20 ± 0.38 s
